Laboratory results from patent publication US12527785B2, “Renin-angiotensin-aldosterone system (RAAS) inhibitors in the treatment of pancreatic ductal carcinoma” (OCHSNER CLINIC FOUNDATION, priority 2023, dated 2026).

Columns and labels:
[1] = system: PANC-1 tumor orthotopic xenograft; experiment: PANC-1 tumor orthotopic xenograft mouse model (BLI tumor burden, tumor weight); assay type: in vivo; settings: four weeks; for Tumor weight, % of control / Tumor weight, mean: Table 19; for Tumor weight, mean: control 0.425; for BLI data, mean: control 3.003
From the text: Human PDCA cell line PANC-1 was transduced with pre-made lentiviral vectors encoding luciferase (firefly)/red fluorescent protein (RFP) to enable monitoring of the growth of primary tumor and metastasis. […] For in vivo experiments, Nonobese diabetic/severe combined immunodeficiencyNOD-SCID mice (Jackson Labs, Bar Harbor, ME, or inhouse breeding) were first brought under anesthesia with isoflurane (2.5% in 100% oxygen, 1 L/min) in an induction chamber and maintained under adequate anesthesia (isoflurane inhalation) while being laid on a warming pad throughout the surgical procedure. For tumor generation, 5×10^4 luciferase-tagged PANC-1 cells were co-inoculated with 3×10^5 lymph node stromal cell (LNSC) analog HK cells. The mice received a 0.75-1.2 cm long incision (on the left side of the body slightly medial to the splenic silhouette) to exteriorize the spleen and pancreas. While gently retracting the pancreas laterally, a 30 G needle was inserted along the length of the pancreas from the tail to the pancreatic head region. Then, 10 μl of cell suspension was injected as the needle was withdrawn to the mid-body of the pancreas. The needle was removed, and the area was inspected for leakage and bleeding. The pancreas and spleen were internalized with forceps and the abdominal muscle layer was closed with interrupted stitches (3-0 silk suture). The overlying skin was closed with a second set of interrupted stitches. Buprenorphine SR-LAB was injected subcutaneously immediately after the surgery for pain relief.
After the surgery, tumor growth and metastatic tumor burden were monitored and assessed weekly for luciferase activity by bioluminescence imaging (BLI) using Lago Imaging System (Spectral Instruments Imaging, Tucson, AZ). Mice were anesthetized using isoflurane for all imaging procedures. Mice were administered intraperitoneally with luciferin (10 mg/kg) and imaged in 10-20 minutes for maximum luciferase signal plateau. Images were analyzed using Aura Imaging software. Once the BLI levels of xenografted tumor reached 5×10^8 photons (around 7-9 weeks post PANC-1 cell injection), the mice were grouped based on their BLI level and compounds (e.g., drugs) of the present disclosure were given by gavage daily to each group for 4 weeks. […] Upon sacrifice after 4 weeks of treatment, primary tumors and mouse organs were harvested, weighed, imaged, and formalin-fixed for (hematoxylin and eosin) H&E and immunohistochemistry staining. Data was statistically analyzed using t-test, or t-test with Bonferroni correction.

[2] = mouse, in vivo; cited from earlier work
HS766T cells = experiment: WST1 cell proliferation assay, HS766T cells; assay type: cell-based
Protocol: (§1) PDA cell line (PANC-1 or HS766T) or patient cancer cells (PaCa9) were trypsinized with 1% trypsin in Hank's Balanced Salt Solution (HBSS), counted, washed, and resuspended in serum free AIM media (ThermoFisher Scientific, Waltham, MA) or complete Dulbecco's Modified Eagle Medium (DMEM) supplemented with 10% fetal bovine serum, […], 100 U/ml of penicillin G, and […] of streptomycin. Cells at a concentration of 2-4×10^4 cells/well in 100 μl culture medium were seeded in triplicate in 96 well plates, then cultured in a humidified incubator at 37° C. and 5% CO2. On the next day, cell supernatant was discarded and compounds (e.g., drugs) of the present disclosure in 200 μl medium were added with the concentrations indicated in the following Examples. After 72 hours of culture, cell proliferation reagent WST1 (20 μl/well, Sigma Aldrich Inc, St. Louis, MO) were added and plates were read using an ELISA reader at 2 hours and 4 hours under the wavelength of 450 nm. The measured absorbance (OD value) was recorded and graphed and statistically analyzed using GraphPad Prism 8, t-test, or t-test with Bonferroni correction.

[3] = system: PDCA cells (PANC-1, HS766T, PaCa9); experiment: In vitro PDCA cell proliferation (WST1), summary statements over the cell lines tested; assay type: cell-based
Protocol: as §1

[4] = system: PaCa-9 PDAC patient tumor cells; experiment: WST1 cell proliferation assay, PaCa-9 PDAC patient tumor cells; assay type: cell-based, human; settings: for cell proliferation, WST1 absorbance (OD value, 450 nm), mean: 10% FCS-DMEM
Protocol: as §1, with “Louis, MO) were added and plates were read using an ELISA reader at 2 hours and 4 hours under the wavelength of 450 nm.” left out

PANC-1 cells = experiment: WST1 cell proliferation assay, PANC-1 cells; assay type: cell-based, human
Protocol: as §1

[5] = 0.1 mg/kg by subcutaneous injection; cited from earlier work
[6] = Candesartan Cilexitil (60 mg/kg)

## CCOc1nc2cccc(C(=O)OC(C)OC(=O)OC3CCCCC3)c2n1Cc1ccc(-c2ccccc2-c2nnn[nH]2)cc1 (stereo not shown) [Candesartan Cilexitil]
[1]; [6]
  Tumor weight, % of control: 38%
  Tumor weight, mean: 0.163 g
[2]
  Safety of oral administration to mice: safely

## CCOc1nc2cccc(C(=O)O)c2n1Cc1ccc(-c2ccccc2-c2nnn[nH]2)cc1 [Candesartan]
[1]; Candesartan (30 mg/kg)
  BLI data, % of control: 67%
  BLI data, mean: 2.016
HS766T cells; 20 μM
  Effective (statistically significant, p<0.05, decrease in cell proliferation by WST1 assay): effective
HS766T cells; Candesartan 10 μM, Table 2, 2 h, 10% FCS-DMEM, control 3.214
  cell proliferation, WST1 absorbance (OD value, 450 nm), mean: 2.856
HS766T cells; Candesartan 20 μM, Table 6A, 10% FCS-DMEM, 2×10^4 cells per well, control 3.339
  cell proliferation, WST1 absorbance (OD value, 450 nm), mean: 0.620
[3]; PANC-1, Hs766T and PaCa9 cells
  Minimum effective dose (concentration) in vitro: ~20 µM
[3]; candesartan 10 μM
  Change in cellular proliferation: no statistical change in cellular proliferation
[4]; 20 μM
  Effective (statistically significant, p<0.05, decrease in cell proliferation by WST1 assay): effective
[4]; Candesartan 10 μM, Table 3, 1 h, Medium/DMSO 3.571
  cell proliferation, WST1 absorbance (OD value, 450 nm), mean: 3.694
[4]; Candesartan 20 μM, Table 7A, 2×10^4 cells per well, control 3.535
  cell proliferation, WST1 absorbance (OD value, 450 nm), mean: 0.464
PANC-1 cells; 20 μM
  Effective (statistically significant, p<0.05, decrease in cell proliferation by WST1 assay): effective
PANC-1 cells; Candesartan 20 μM, Table 5A, 10% FCS-DMEM, 2×10^4 cells per well, Medium/DMSO 3.348
  cell proliferation, WST1 absorbance (OD value, 450 nm), mean: 0.612

## CCCCc1nc(Cl)c(CO)n1Cc1ccc(-c2ccccc2-c2nn[nH]n2)cc1 [Losartan]
[1]; Losartan (60 mg/kg)
  BLI data, % of control: 73%
  Tumor weight, % of control: 87%
  Tumor weight, mean: 0.3691 g
  BLI data, mean: 2.199
HS766T cells; Losartan 100 μM, Table 2, 2 h, 10% FCS-DMEM, control 3.214
  cell proliferation, WST1 absorbance (OD value, 450 nm), mean: 2.992
HS766T cells; Losartan 100 μM, Table 6A, 10% FCS-DMEM, 2×10^4 cells per well, control 3.339
  cell proliferation, WST1 absorbance (OD value, 450 nm), mean: 3.182
[3]; losartan 100 μM
  Change in cellular proliferation: no statistical change in cellular proliferation
[4]; Losartan 100 μM, Table 3, 1 h, Medium/DMSO 3.571
  cell proliferation, WST1 absorbance (OD value, 450 nm), mean: 3.392
[4]; Losartan 100 μM, Table 7A, 2×10^4 cells per well, control 3.535
  cell proliferation, WST1 absorbance (OD value, 450 nm), mean: 3.161
PANC-1 cells; Losartan 100 μM, Table 1, 2 h, 10% FCS-DMEM, control 3.618
  cell proliferation, WST1 absorbance (OD value, 450 nm), mean: 2.507
PANC-1 cells; Losartan 100 μM, Table 5A, 10% FCS-DMEM, 2×10^4 cells per well, Medium/DMSO 3.348
  cell proliferation, WST1 absorbance (OD value, 450 nm), mean: 3.699

## Cc1cc(Cn2cnc3c2C[C@@H](C(=O)O)N(C(=O)C(c2ccccc2)c2ccccc2)C3)ccc1N(C)C [PD123319]
HS766T cells; 10 μM, Table 9, 2 h, DMEM-10% FCS, control 2.025
  cell proliferation, WST1 absorbance (OD value, 450 nm), mean: 1.336
HS766T cells; 10 μM, Table 11, 2 h, serum free media, control 2.0695
  cell proliferation, WST1 absorbance (OD value, 450 nm), mean: 1.24
HS766T cells; 10 μM, Table 13, 2 h, 10% FCS DMEM, control 2.913
  cell proliferation, WST1 absorbance (OD value, 450 nm), mean: 2.895
HS766T cells; 10 μM, Table 15, 2 h, serum free media, N = 6, control 1.906
  cell proliferation, WST1 absorbance (OD value, 450 nm), mean: 1.708
HS766T cells; 30 μM, Table 11, 2 h, serum free media, control 2.0695
  cell proliferation, WST1 absorbance (OD value, 450 nm), mean: 1.397
HS766T cells; 30 μM, Table 13, 2 h, 10% FCS DMEM, control 2.913
  cell proliferation, WST1 absorbance (OD value, 450 nm), mean: 2.555
HS766T cells; 30 μM, Table 15, 2 h, serum free media, N = 6, control 1.906
  cell proliferation, WST1 absorbance (OD value, 450 nm), mean: 1.56
HS766T cells; 50 μM, Table 11, 2 h, serum free media, control 2.0695
  cell proliferation, WST1 absorbance (OD value, 450 nm), mean: 1.235
HS766T cells; 50 μM, Table 13, 2 h, 10% FCS DMEM, control 2.913
  cell proliferation, WST1 absorbance (OD value, 450 nm), mean: 1.886
HS766T cells; 50 μM, Table 15, 2 h, serum free media, N = 6, control 1.906
  cell proliferation, WST1 absorbance (OD value, 450 nm), mean: 1.154
[3]; 10 μM, 30 μM, and 50 μM, presence or absence of serum
  Effective in inhibiting PDCA cell proliferation in vitro: effective
[5]
  Activity in rats: active
PANC-1 cells; 10 μM, Table 8, 2 h, DMEM-10% FCS, control 3.922
  cell proliferation, WST1 absorbance (OD value, 450 nm), mean: 2.724
PANC-1 cells; 10 μM, Table 10, 2 h, serum free media, control 3.443
  cell proliferation, WST1 absorbance (OD value, 450 nm), mean: 2.120
PANC-1 cells; 10 μM, Table 12, 2 h, 10% FCS DMEM, N = 6, control 3.37
  cell proliferation, WST1 absorbance (OD value, 450 nm), mean: 2.823
PANC-1 cells; 10 μM, Table 14, 2 h, serum free media, N = 6, control 1.208
  cell proliferation, WST1 absorbance (OD value, 450 nm), mean: 1.048
PANC-1 cells; 30 μM, Table 8, 2 h, DMEM-10% FCS, control 3.922
  cell proliferation, WST1 absorbance (OD value, 450 nm), mean: 2.60
PANC-1 cells; 30 μM, Table 10, 2 h, serum free media, control 3.443
  cell proliferation, WST1 absorbance (OD value, 450 nm), mean: 1.970
PANC-1 cells; 30 μM, Table 12, 2 h, 10% FCS DMEM, N = 6, control 3.37
  cell proliferation, WST1 absorbance (OD value, 450 nm), mean: 2.854
PANC-1 cells; 30 μM, Table 14, 2 h, serum free media, N = 6, control 1.208
  cell proliferation, WST1 absorbance (OD value, 450 nm), mean: 0.7668
PANC-1 cells; 50 μM, Table 8, 2 h, DMEM-10% FCS, N = 1, control 3.922
  cell proliferation, WST1 absorbance (OD value, 450 nm), mean: 1.951
PANC-1 cells; 50 μM, Table 10, 2 h, serum free media, control 3.443
  cell proliferation, WST1 absorbance (OD value, 450 nm), mean: 2.146
PANC-1 cells; 50 μM, Table 12, 2 h, 10% FCS DMEM, N = 6, control 3.37
  cell proliferation, WST1 absorbance (OD value, 450 nm), mean: 2.873
PANC-1 cells; 50 μM, Table 14, 2 h, serum free media, N = 6, control 1.208
  cell proliferation, WST1 absorbance (OD value, 450 nm), mean: 0.728

## CC(=O)S[C@@H]1CC2=CC(=O)CC[C@]2(C)[C@H]2CC[C@@]3(C)[C@@H](CC[C@@]34CCC(=O)O4)[C@H]12 [Spironolactone]
[1]; Spironolactone (100 mg/kg)
  Tumor weight, % of control: 69%
  Tumor weight, mean: 0.292 g
